Series [1] relates to human astroglioma-cell series (HTB-14). The procedure:
(§1) FIG. 4 is a graph of MTT reduction as a function of concentration of NFGAIL, SEQ ID NO: 3.
(§2) Suspensions of the peptide aggregate (produced as described as above) were tested by means of a Rat Insulinoma (RIN5 mf) and a human astroglioma-cell series (HTB-14) for toxicity. The newly dissolved peptides were also tested for cytotoxicity.

The next series has as its system Rat Insulinoma (RIN5 mf). The procedure:
as §1, §2

[2] abbreviates: aggregated form (suspension of peptide aggregate).
Setting [3] is: soluble form (newly dissolved peptide).

Like-named read-outs stand apart in the source and are kept apart here. No end group written: not given here.

With NFGAIL [NFGAIL], the Cytotoxicity result in series [1] (setting [2]) is “cyto-toxic”; in series [1] (setting [3]), “no toxicity”; with Rat Insulinoma (RIN5 mf) (setting [2]), “cyto-toxic”; in the series on Rat Insulinoma (RIN5 mf) (setting [3]) it was “no toxicity”.

Values taken from US6359112B2 (Fraunhofer-Gesellschaft zur Forferung der angewandten …, priority 1997, dated 2002).
